Data as given in patent US7632782B2, “Synergistically acting herbicidal mixtures” (BASF Aktiengesellschaft, priority 2002, dated 2009).

How the values were obtained:
Assay type in all cases: in vivo
[1] = system: Pharbitis purpurea; test: Herbicidal action, post-emergence treatment, greenhouse
From the text: (§1) The mixtures according to the invention were applied pre- and/or post-emergence (foliar treatment). The herbicidal compounds of component B) and, if desired, of component C) as well as the safener D) were applied in the formulation in which they are present as commercially available product (s).
(§2) The herbicidally active compounds of components A), B) and, if desired, C), and, if desired D), were applied in succession or jointly, in the latter case in some cases as a tank mix and in some cases as a readymix, in the form of emulsions, aqueous solutions or suspensions, the vehicle being water (300-400 l/ha). In the case of the field trials, application was effected with the aid of a mobile plot sprayer.
(§3) The test period extended over 3 to 8 weeks, and the stands were also observed at later points in time.
(§4) Damage by the herbicidal compositions was evaluated with reference to a scale of 0% to 100% in comparison with untreated control plots. 0 means no damage and 100 means complete destruction of the plants.
(§5) In these examples, the value […] at which only an additive effect of the individual active ingredients is to be expected was calculated by the method of S. R. Colby (Calculating synergistic and antagonistic responses of herbicide combinations, Weeds 15, 20 pp (1967)).
(§6) [formula] where • X=Percentage of the herbicidal action of component A) at an application rate of a; • Y=Percentage of the herbicidal action of component B), and, if desired, C), and, if desired, D) at an application rate of b, and, if desired, c, and, if desired, d; • E=expected herbicidal action of component A)+B), and, if desired C), and; if desired, D) at rates of application a+b, and, if desired, c and, if desired, d (in %).
(§7) If the value observed exceeds the value E calculated in accordance with Colby's formula, then synergism is present.

[2] = system: Abutilon theophrasti; test: as above
From the text: as §1, §2, §3, §4, §5, §6, §7

[3] = system: Avena fatua; test: as above
From the text: as §1, §2, §3, §4, §5, §6, §7

[4] = system: Pharbitis purpurea; test: Herbicidal action, post-emergence treatment, field; settings: Table 9, application rate 3.91 g/ha ai
From the text: as §1, §2, §3, §4, §5, §6, §7

[5] = system: Commelina benghalensis; test: Herbicidal action, post-emergence treatment, field; settings: Table 5, application rate 7.81 g/ha ai
From the text: as §1, §2, §3, §4, §5, §6, §7

[6] = system: Brachiaria plantaginea; test: Herbicidal action, post-emergence treatment, field; settings: Table 15, application rate 3.91 g/ha ai
From the text: as §1, §2, §3, §4, §5, §6, §7

[7] = system: Polygonum persicaria; test: Herbicidal action, post-emergence treatment, field; settings: Table 10, application rate 1.95 g/ha ai
From the text: as §1, §2, §3, §4, §5, §6, §7

[8] = system: Bidens pilosa; test: Herbicidal action, post-emergence treatment, field
From the text: as §1, §2, §3, §4, §5, §6, §7

[9] = system: Galium aparine; test: Herbicidal action, post-emergence treatment, greenhouse; settings: Table 11, application rate 7.81 g/ha ai
From the text: as §1, §2, §3, §4, §5, §6, §7

[10] = system: Amaranthus retroflexus; test: as above
From the text: as §1, §2, §3, §4, §5, §6, §7

[11] = system: Bidens pilosa; test: as above; settings: Table 12, application rate 7.81 g/ha ai
From the text: as §1, §2, §3, §4, §5, §6, §7

[12] = Table 3, application rate 1.95 g/ha ai
[13] = Table 4, application rate 0.98 g/ha ai
[14] = Table 3, application rate 3.91 g/ha ai
[15] = Table 4, application rate 1.95 g/ha ai
[16] = Table 6, application rate 3.91 g/ha ai
[17] = Table 8, application rate 1.95 g/ha ai
[18] = Table 14, application rate 3.91 g/ha ai

COc1cc(OC)nc(NC(=O)NS(=O)(=O)c2cc(NC=O)ccc2C(=O)N(C)C)n1 [Compound II, foramsulfuron, reference compound]
Pharbitis purpurea Damage [%] [1, 12]: 80% | Abutilon theophrasti Damage [%] [2, 13]: 30% | Avena fatua Damage [%] [3, 12]: 50% | Avena fatua Damage [%] [3, 13]: 30%

Cc1c(C(=O)c2cnn(C)c2O)ccc(S(C)(=O)=O)c1C1=NOCC1 [Ia.29, 4-[2-methyl-3-(4,5-dihydroisoxazol-3-yl)-4-methylsulfonyl-benzoyl]-1-methyl-5-hydroxy-1H-pyrazole]
Pharbitis purpurea Damage [%] [4]: 70% | Commelina benghalensis Damage [%] [5]: 40% | Brachiaria plantaginea Damage [%] [6]: 80% | Polygonum persicaria Damage [%] [7]: 95% | Bidens pilosa Damage [%] ([8]; Table 7, application rate 3.91 g/ha ai): 30% | Bidens pilosa Damage [%] ([8]; Table 13, application rate 7.81 g/ha ai): 60% | Galium aparine Damage [%] [9]: 30% | Pharbitis purpurea Damage [%] [1, 14]: 70% | Abutilon theophrasti Damage [%] [2, 15]: 40% | Abutilon theophrasti Damage [%] [2, 16]: 80% | Abutilon theophrasti Damage [%] [2, 17]: 40% | Abutilon theophrasti Damage [%] ([2]; Table 11, application rate 7.81 g/ha ai): 95% | Abutilon theophrasti Damage [%] ([2]; Table 12, application rate 7.81 g/ha ai): 95% | Abutilon theophrasti Damage [%] [2, 18]: 80% | Amaranthus retroflexus Damage [%] [10, 16]: 60% | Amaranthus retroflexus Damage [%] [10, 17]: 40% | Amaranthus retroflexus Damage [%] [10, 18]: 60% | Bidens pilosa Damage [%] [11]: 60% | Avena fatua Damage [%] [3, 14]: 50% | Avena fatua Damage [%] [3, 15]: 25%
